In article PMC9224473 (International Journal of Molecular Sciences, 2022):
Values after ≈ are worked out from the molar mass of the structure shown.

What was measured:
S. aureus NCTC 4163 = experiment: MIC, broth microdilution, standard strain; type: cell-based, Staphylococcus aureus; details: Staphylococcus aureus, NCTC4163, 19 h, 35 °C
S. aureus ATCC 25923 = experiment: MIC, broth microdilution, standard strain; type: cell-based, Staphylococcus aureus; details: Staphylococcus aureus, ATCC25923, 19 h, 35 °C
E. coli ATCC 25922 = experiment: MIC, broth microdilution, standard strain; type: cell-based, Escherichia coli; details: 35 °C; for MIC: Escherichia coli, ATCC25922, 19 h
S. aureus ATCC 29213 = experiment: MIC, broth microdilution, standard strain; type: cell-based, Staphylococcus aureus; details: Staphylococcus aureus, ATCC29213, 19 h, 35 °C
P. aeruginosa ATCC 15442 = experiment: MIC, broth microdilution, standard strain; type: cell-based, Pseudomonas aeruginosa; details: Pseudomonas aeruginosa, ATCC15442, 19 h, 35 °C
[1] = system: HCT116 (human colon cancer); experiment: MTT cytotoxicity assay; type: cell-based; details: Homo sapiens, HCT-116, 72 h, mean SD
Description: (§1) The human cell lines SW480 (primary colon cancer), SW620 (lymph node metastatic colon cancer from the same patient as primary cancer cells), HCT116 (colon carcinoma), HepG2 (liver cancer), and HaCaT (immortalized keratinocytes) were obtained from the American Type Culture Collection (ATCC, Rockville, MD, USA). The SW480, SW620 and HCT116 cells were grown in MEM (ThermoSci, Waltham, MA, USA), HepG2 and HaCaT in DMEM High Glucose (Biowest SAS, Nuaillé, France) supplemented with 10% foetal bovine serum (FBS), HEPES (20 mM), and antibiotics (100 U mL^−1 of Penicillin and 100 μg mL^−1 of Streptomycin). The cells were incubated in a humidified incubator at 37 °C/5% CO2, until 80–90% confluence was reached.
(§2) The cell viability was assessed by using of MTT salt [3-(4,5-dimethylthiazol-2-yl)-2,5-diphenyltetrazolium bromide] converted by mitochondrial dehydrogenase, occurring in living cells. The cells were seeded in 96-well plates at a density of 1 × 10^4 cells per well and allowed to adhere for 24 h at 37 °C in a CO2 humidified incubator. […]. The untreated cells were used as the control.
(§3) After 72 h incubation, the medium was replaced with 200 µL per well of free-serum medium containing 0.5 mg mL^−1 MTT and incubated for 4 h at 37 °C in a CO2 humidified incubator. Subsequently, the medium was removed and dimethyl sulfoxide (DMSO) with isopropanol (1:1) was added to dissolve the formazan crystals. The optical density was measured using UVM 340 reader (ASYS Hitech GmbH, Eugendorf, Austria) at a wavelength of 570 nm. The experiments were repeated three times. The cell viability was calculated as the percent of MTT reduced in treated cells versus control cells (untreated cells). The number of viable cells cultured without tested compounds was assumed as 100%. A decreased relative MTT level indicates decreased cell viability. The IC50 values were estimated using CompuSyn version 1.0.

[2] = system: HepG2 (human liver cancer); experiment: MTT cytotoxicity assay; type: cell-based; details: Homo sapiens, HepG2, 72 h, mean SD
Description: as §1, §2, §3

[3] = system: SW480 (human primary colon cancer); experiment: MTT cytotoxicity assay; type: cell-based; details: Homo sapiens, SW480, 72 h, mean SD
Description: as §1, §2, §3

[4] = system: HaCaT (human immortal keratinocyte cell line); experiment: MTT cytotoxicity assay; type: cell-based; details: Homo sapiens, HaCaT, 72 h, mean SD, read-out: IC50 HaCaT (normal cells)
Description: as §1, §2, §3

[5] = system: S. epidermidis ATCC 35984; experiment: MIC, broth microdilution, standard strain; type: cell-based, Staphylococcus epidermidis; details: Staphylococcus epidermidis, ATCC35984, 19 h, 35 °C
E. coli 600 = experiment: MIC, broth microdilution, clinical strain; type: cell-based, Escherichia coli; details: Escherichia coli, 600, 19 h, 35 °C
S. epidermidis KR 4243 = experiment: MIC, broth microdilution, clinical strain; type: cell-based, Staphylococcus epidermidis; details: Staphylococcus epidermidis, KR4243, 19 h, 35 °C
E. coli 520 = experiment: MIC, broth microdilution, clinical strain; type: cell-based, Escherichia coli; details: Escherichia coli, 520, 19 h, 35 °C
P. aeruginosa 659 = experiment: MIC, broth microdilution, clinical strain; type: cell-based, Pseudomonas aeruginosa; details: Pseudomonas aeruginosa, 659, read-out: MIC P. aeruginosa 659, 19 h, 35 °C
S. aureus T 5591 = experiment: MIC, broth microdilution, clinical strain; type: cell-based, Staphylococcus aureus; details: Staphylococcus aureus, T5591, 19 h, 35 °C
E. coli 510 = experiment: MIC, broth microdilution, clinical strain; type: cell-based, Escherichia coli; details: Escherichia coli, 510, 19 h, 35 °C
S. aureus T 5595 = experiment: MIC, broth microdilution, clinical strain; type: cell-based, Staphylococcus aureus; details: Staphylococcus aureus, T5595, 19 h, 35 °C
[6] = system: SW620 (human metastatic colon cancer); experiment: MTT cytotoxicity assay; type: cell-based; details: Homo sapiens, SW-620, 72 h, mean SD
Description: as §1
The cell viability was assessed by using of MTT salt [3-(4,5-dimethylthiazol-2-yl)-2,5-diphenyltetrazolium bromide] converted by mitochondrial dehydrogenase, occurring in living cells. […] The untreated cells were used as the control.
as §3, with “Subsequently,” for “After 72 h incubation, the medium was replaced with 200 µL per well of free-serum medium containing 0.5 mg mL^−1 MTT and incubated for 4 h at 37 °C in a CO2 humidified incubator. Subsequently,”

S. pasteuri KR 4358 = experiment: MIC, broth microdilution, clinical strain; type: cell-based, Staphylococcus pasteuri; details: Staphylococcus pasteuri, KR4358, 19 h, 35 °C
[7] = system: S. epidermidis ATCC 12228; experiment: MIC, broth microdilution, standard strain; type: cell-based, Staphylococcus epidermidis; details: Staphylococcus epidermidis, ATCC12228, 19 h, 35 °C
S. aureus ATCC 6538 = experiment: MIC, broth microdilution, standard strain; type: cell-based, Staphylococcus aureus; details: Staphylococcus aureus, ATCC6538, 19 h, 35 °C

Cc1ccc(C(C)C)c(OCC(=O)N2CCN(c3cc4c(cc3F)c(=O)c(C(=O)O)cn4C3CC3)CC2)c1 [Compound 9, 1-cyclopropyl-6-fluoro-7-{4-[2-(2-isopropyl-5-methylphenoxy)acetyl]piperazin-1-yl}-4-oxo-1,4-dihydroquinoline-3-carboxylic acid]
MIC (S. aureus NCTC 4163): 2 µg/mL (≈ 3.83 µM)
MIC (S. aureus ATCC 25923): 2 µg/mL (≈ 3.83 µM)
MIC (E. coli ATCC 25922): 16 µg/mL (≈ 30.7 µM)
MIC (S. aureus ATCC 29213): 2 µg/mL (≈ 3.83 µM)
MIC (P. aeruginosa ATCC 15442): 256 µg/mL (≈ 491 µM)
IC50 [1]: 44.5 ± 4 µM
IC50 [2]: 25.7 ± 0.8 µM
IC50 [3]: 28.2 ± 0.6 µM
IC50 [4]: 19.9 ± 2.2 µM
MIC [5]: 4 µg/mL (≈ 7.67 µM)
MIC (E. coli 600): 32 µg/mL (≈ 61.4 µM)
MIC (S. epidermidis KR 4243): 8 µg/mL (≈ 15.3 µM)
MIC (E. coli 520): 32 µg/mL (≈ 61.4 µM)
MIC (P. aeruginosa 659): 256 µg/mL (≈ 491 µM)
MIC (S. aureus T 5591): 4 µg/mL (≈ 7.67 µM)
MIC (E. coli 510): > 256 µg/mL
MIC (S. aureus T 5595): 4 µg/mL (≈ 7.67 µM)
IC50 [6]: 49.1 ± 4.1 µM
MIC (S. pasteuri KR 4358): 8 µg/mL (≈ 15.3 µM)
MIC [7]: 8 µg/mL (≈ 15.3 µM)
MIC (S. aureus ATCC 6538): 2 µg/mL (≈ 3.83 µM)

CC(C)[C@@H]1CC[C@@H](C)C[C@H]1OC(=O)CCN1CCN(c2cc3c(cc2F)c(=O)c(C(=O)O)cn3C2CC2)CC1 [Compound 3, 1-cyclopropyl-6-fluoro-7-{4-[3-((1R,2S,5R)-2-isopropyl-5-methylcyclohexyloxy)-3-oxopropyl]piperazin-1-yl}-4-oxo-1,4-dihydroquinoline-3-carboxylic acid]
MIC (S. aureus NCTC 4163): 4 µg/mL (≈ 7.38 µM)
MIC (S. aureus ATCC 25923): 4 µg/mL (≈ 7.38 µM)
MIC E. coli ATCC 25922 (E. coli ATCC 25922; 19 h): 4 µg/mL (≈ 7.38 µM)
MIC (E. coli ATCC 25922): 2 to 4 µg/mL (≈ 3.69 to 7.38 µM)
MIC (S. aureus ATCC 29213): 4 µg/mL (≈ 7.38 µM)
MIC (P. aeruginosa ATCC 15442): 32 µg/mL (≈ 59.1 µM)
IC50 [1]: 27.1 ± 3.1 µM
IC50 [2]: 36.8 ± 3.8 µM
IC50 [3]: 30.3 ± 1.2 µM
IC50 [4]: 45.5 ± 5.1 µM
MIC [5]: 4 µg/mL (≈ 7.38 µM)
MIC (E. coli 600): 4 µg/mL (≈ 7.38 µM)
MIC (S. epidermidis KR 4243): 4 µg/mL (≈ 7.38 µM)
MIC (E. coli 520): 4 µg/mL (≈ 7.38 µM)
MIC (P. aeruginosa 659): 64 µg/mL (≈ 118 µM)
MIC (S. aureus T 5591): 4 µg/mL (≈ 7.38 µM)
MIC (E. coli 510): 256 µg/mL (≈ 473 µM)
MIC (S. aureus T 5595): 4 µg/mL (≈ 7.38 µM)
IC50 [6]: 38.6 ± 3.8 µM
MIC (S. pasteuri KR 4358): 4 µg/mL (≈ 7.38 µM)
MIC [7]: 4 µg/mL (≈ 7.38 µM)
MIC (S. aureus ATCC 6538): 4 µg/mL (≈ 7.38 µM)

O=C(O)c1cn(C2CC2)c2cc(N3CCNCC3)c(F)cc2c1=O [Ciprofloxacin, reference compound]
IC50 [1]: > 100 µM
IC50 [2]: > 100 µM
IC50 [3]: > 100 µM
IC50 [4]: > 100 µM
IC50 [6]: > 100 µM

CC(C)[C@@H]1CC[C@@H](C)C[C@H]1OCC(=O)N1CCN(c2cc3c(cc2F)c(=O)c(C(=O)O)cn3C2CC2)CC1 [Compound 1, 1-cyclopropyl-6-fluoro-7-{4-[2-((1R,2S,5R)-2-isopropyl-5-methylcyclohexyloxy)acetyl]piperazin-1-yl}-4-oxo-1,4-dihydroquinoline-3-carboxylic acid]
MIC (S. aureus NCTC 4163): 2 µg/mL (≈ 3.79 µM)
MIC (S. aureus ATCC 25923): 4 µg/mL (≈ 7.58 µM)
MIC (E. coli ATCC 25922): 32 µg/mL (≈ 60.6 µM)
MIC (S. aureus ATCC 29213): 4 µg/mL (≈ 7.58 µM)
MIC (P. aeruginosa ATCC 15442): > 256 µg/mL
IC50 [1]: 34.9 ± 1.4 µM
IC50 [2]: 23.1 ± 0.2 µM
IC50 [3]: 39.9 ± 4.5 µM
IC50 [4]: 21.7 ± 0.8 µM
MIC [5]: 2 µg/mL (≈ 3.79 µM)
MIC (E. coli 600): 32 µg/mL (≈ 60.6 µM)
MIC (S. epidermidis KR 4243): 8 µg/mL (≈ 15.2 µM)
MIC (E. coli 520): 32 µg/mL (≈ 60.6 µM)
MIC (P. aeruginosa 659): > 256 µg/mL
MIC (S. aureus T 5591): 4 µg/mL (≈ 7.58 µM)
MIC (E. coli 510): > 256 µg/mL
MIC (S. aureus T 5595): 8 µg/mL (≈ 15.2 µM)
IC50 [6]: 28.1 ± 2.1 µM
MIC (S. pasteuri KR 4358): 8 µg/mL (≈ 15.2 µM)
MIC [7]: 4 µg/mL (≈ 7.58 µM)
MIC (S. aureus ATCC 6538): 4 µg/mL (≈ 7.58 µM)
